Test results from ChEMBL document CHEMBL1201862, “PubChem BioAssay data set” (2004).
The source made the active and inactive calls.

Assays:
[1] = biological target: G-protein coupled receptor 55 (Homo sapiens, UniProt Q9Y2T6); experiment: GPR55 antagonists blocking LPI-driven arrestin recruitment, primary screen, imaging, U2OS, beta-arrestin-GFP, LPI agonist (AID 2013); type: functional;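 note: antagonist potency measured as reduced agonist-driven arrestin aggregation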
[2] = biological target: T1, Polyadenylate-binding protein 1 (Homo sapiens, UniProt P11940); experiment: PABP poly(A) RNA binding inhibitors, primary screen, biochemical, fluorescence polarization, uHTS (AID 2014)
T1 sequence (P11940 whole entry): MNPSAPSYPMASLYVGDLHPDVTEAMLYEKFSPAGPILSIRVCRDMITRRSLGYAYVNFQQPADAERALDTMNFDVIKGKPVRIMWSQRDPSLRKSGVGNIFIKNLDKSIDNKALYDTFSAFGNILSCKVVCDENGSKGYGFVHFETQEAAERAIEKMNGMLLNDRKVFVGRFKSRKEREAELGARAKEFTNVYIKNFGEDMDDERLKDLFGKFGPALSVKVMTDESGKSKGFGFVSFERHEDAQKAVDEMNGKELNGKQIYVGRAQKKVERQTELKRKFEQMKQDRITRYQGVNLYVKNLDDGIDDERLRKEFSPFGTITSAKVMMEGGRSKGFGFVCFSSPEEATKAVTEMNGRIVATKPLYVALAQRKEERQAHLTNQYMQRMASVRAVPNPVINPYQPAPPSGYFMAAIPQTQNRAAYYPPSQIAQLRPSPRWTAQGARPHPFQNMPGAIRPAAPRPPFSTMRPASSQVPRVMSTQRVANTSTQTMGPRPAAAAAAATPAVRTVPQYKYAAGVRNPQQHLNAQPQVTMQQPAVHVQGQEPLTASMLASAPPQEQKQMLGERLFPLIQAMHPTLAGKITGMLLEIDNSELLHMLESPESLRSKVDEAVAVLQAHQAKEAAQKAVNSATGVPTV

[3] = biological target: T2, Eukaryotic translation initiation factor 4H (Homo sapiens, UniProt Q15056); experiment: eIF4H inhibition in translation initiation, SAR follow-up (AID 435011); type: functional
[4] = biological target: Luciferin 4-monooxygenase (Photinus pyralis, UniProt P08659); experiment: firefly luciferase enzyme inhibitors, dose response, biochemical, luminescence (AID 1891)
Chain of Luciferin 4-monooxygenase (P08659 whole entry): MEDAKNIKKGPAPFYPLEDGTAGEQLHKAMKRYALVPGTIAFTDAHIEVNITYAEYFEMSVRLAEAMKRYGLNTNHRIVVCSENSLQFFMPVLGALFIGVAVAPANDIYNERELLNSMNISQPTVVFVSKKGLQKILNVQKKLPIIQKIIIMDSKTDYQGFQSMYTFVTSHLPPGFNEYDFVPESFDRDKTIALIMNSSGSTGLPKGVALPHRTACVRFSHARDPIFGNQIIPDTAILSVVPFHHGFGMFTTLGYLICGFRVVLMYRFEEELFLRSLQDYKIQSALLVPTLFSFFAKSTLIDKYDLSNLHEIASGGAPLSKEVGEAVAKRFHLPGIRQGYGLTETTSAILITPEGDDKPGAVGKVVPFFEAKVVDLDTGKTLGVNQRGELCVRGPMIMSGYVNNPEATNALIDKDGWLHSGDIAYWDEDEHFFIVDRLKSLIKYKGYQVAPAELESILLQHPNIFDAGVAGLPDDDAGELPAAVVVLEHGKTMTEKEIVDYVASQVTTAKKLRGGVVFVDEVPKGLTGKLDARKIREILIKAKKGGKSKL

[5] = Luminescence Cell-Based Dose Confirmation HTS to Identify Inhibitors of Platelet Dense Granule Release. [Related pubchem assays: 1663 (Primary HTS), 1678 (Summary of Project)]; type: functional
[6] = biological target: T1, Polyadenylate-binding protein 1; experiment: PABP inhibition in translation initiation, SAR follow-up (AID 435018); type: functional
[7] = biological target: T2, Eukaryotic translation initiation factor 4H; experiment: human eIF4H binding inhibitors, primary screen, translation initiation inhibitor project, biochemical, uHTS, fluorescence polarization (AID 2012)
[8] = tested on: T-cell; experiment: inhibitors of CD8+ T cell–vesicle binding, dose response, mouse 2C CD8+ T cells, flow cytometry (AID 485284); type: functional
[9] = biological target: Cytochrome P450 2C19 (Homo sapiens, UniProt P33261); experiment: Cytochrome panel assay with activity outcomes. Panel member name: p450-cyp2c19 Compounds with AC50 equal or less than 10 uM are considered active; type: functional; conditions: read-out: AC50
[10] = biological target: Beta-galactosidase (Escherichia coli, UniProt Q8VNN2); type: functional
Chain of Beta-galactosidase (Q8VNN2 whole entry): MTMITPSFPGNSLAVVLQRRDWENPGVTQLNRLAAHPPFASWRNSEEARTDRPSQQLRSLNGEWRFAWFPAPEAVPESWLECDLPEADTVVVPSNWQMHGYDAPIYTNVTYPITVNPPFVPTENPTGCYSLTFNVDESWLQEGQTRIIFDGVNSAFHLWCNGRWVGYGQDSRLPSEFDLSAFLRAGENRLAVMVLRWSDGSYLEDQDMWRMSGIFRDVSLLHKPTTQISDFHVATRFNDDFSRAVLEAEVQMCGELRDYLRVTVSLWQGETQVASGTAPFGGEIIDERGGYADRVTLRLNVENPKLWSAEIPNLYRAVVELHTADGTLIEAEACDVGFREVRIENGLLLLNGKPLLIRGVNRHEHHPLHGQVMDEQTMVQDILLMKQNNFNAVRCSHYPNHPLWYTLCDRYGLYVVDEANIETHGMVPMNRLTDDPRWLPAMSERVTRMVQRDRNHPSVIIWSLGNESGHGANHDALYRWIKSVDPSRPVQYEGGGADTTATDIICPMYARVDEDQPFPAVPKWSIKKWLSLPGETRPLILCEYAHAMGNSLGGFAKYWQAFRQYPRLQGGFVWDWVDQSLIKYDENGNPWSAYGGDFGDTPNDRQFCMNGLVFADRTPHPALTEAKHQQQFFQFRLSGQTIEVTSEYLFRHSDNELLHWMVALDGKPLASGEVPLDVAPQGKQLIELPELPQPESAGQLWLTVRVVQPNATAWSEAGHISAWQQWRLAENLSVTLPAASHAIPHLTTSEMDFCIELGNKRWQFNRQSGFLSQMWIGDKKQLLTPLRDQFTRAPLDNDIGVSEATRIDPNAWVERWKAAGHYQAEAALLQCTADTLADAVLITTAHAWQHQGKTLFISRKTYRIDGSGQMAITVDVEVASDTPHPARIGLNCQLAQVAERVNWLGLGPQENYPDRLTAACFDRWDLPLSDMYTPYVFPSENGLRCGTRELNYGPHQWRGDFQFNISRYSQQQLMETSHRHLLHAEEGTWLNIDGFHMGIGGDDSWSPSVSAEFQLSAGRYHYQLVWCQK

[11] = HeLa cell cytotoxicity, dose response, cytotoxicity control for MgcRacGAP inhibitor project (AID 624300); type: functional
[12] = biological target: T3, Kappa-type opioid receptor (Homo sapiens, UniProt P41145); type: functional
T3 sequence (P41145 whole entry): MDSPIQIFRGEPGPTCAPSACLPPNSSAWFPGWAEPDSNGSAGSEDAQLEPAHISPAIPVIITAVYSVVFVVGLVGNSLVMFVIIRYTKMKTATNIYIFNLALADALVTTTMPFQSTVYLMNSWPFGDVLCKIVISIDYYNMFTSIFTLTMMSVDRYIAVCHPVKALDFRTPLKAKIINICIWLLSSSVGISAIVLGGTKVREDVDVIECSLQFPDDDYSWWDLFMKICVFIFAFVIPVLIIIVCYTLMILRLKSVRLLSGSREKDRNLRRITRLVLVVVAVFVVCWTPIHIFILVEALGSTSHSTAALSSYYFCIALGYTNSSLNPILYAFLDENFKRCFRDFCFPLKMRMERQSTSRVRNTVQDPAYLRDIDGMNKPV

[13] = tested on: HeLa; experiment: HeLa cell cytotoxicity, dose response, cytotoxicity control for MITF activator project, CellTiter-Glo luminescence, cherry-pick samples (AID 540259); type: functional, cell-based; conditions: Homo sapiens
[14] = biological target: T4, Rac GTPase-activating protein 1 (Homo sapiens, UniProt Q9H0H5); experiment: MgcRacGAP GTPase-activating activity inhibitors, confirmation, biochemical, ADP Hunter fluorescence, primary and confirmatory (AID 624330); type: functional
T4 sequence (Q9H0H5 whole entry): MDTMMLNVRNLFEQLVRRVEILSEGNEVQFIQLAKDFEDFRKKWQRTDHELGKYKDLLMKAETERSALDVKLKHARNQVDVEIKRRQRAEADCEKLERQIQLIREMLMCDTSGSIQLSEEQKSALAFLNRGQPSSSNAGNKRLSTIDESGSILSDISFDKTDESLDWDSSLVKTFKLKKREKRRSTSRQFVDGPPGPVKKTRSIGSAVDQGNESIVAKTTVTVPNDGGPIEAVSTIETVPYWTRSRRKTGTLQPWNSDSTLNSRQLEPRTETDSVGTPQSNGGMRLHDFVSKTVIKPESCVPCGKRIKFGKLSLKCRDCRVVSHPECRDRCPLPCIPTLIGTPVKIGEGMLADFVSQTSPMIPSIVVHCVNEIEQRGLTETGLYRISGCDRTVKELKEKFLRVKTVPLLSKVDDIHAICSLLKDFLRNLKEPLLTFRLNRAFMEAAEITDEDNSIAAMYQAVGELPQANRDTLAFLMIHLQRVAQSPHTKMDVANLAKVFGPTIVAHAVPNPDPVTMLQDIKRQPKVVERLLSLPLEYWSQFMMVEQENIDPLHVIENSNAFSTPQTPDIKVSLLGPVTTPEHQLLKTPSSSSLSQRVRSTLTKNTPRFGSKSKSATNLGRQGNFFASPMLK

[15] = biological target: T3, Kappa-type opioid receptor; type: functional; remark: listed apart in the source
[16] = biological target: Wee1-like protein kinase (Homo sapiens, UniProt P30291); experiment: G2/M cell cycle arrest in HeLa, late-stage follow-up, mechanism study for Wee1 degradation inhibitor project, FACS, panel member Wee1 Degradation (AID 2088)
Chain of Wee1-like protein kinase (P30291 whole entry): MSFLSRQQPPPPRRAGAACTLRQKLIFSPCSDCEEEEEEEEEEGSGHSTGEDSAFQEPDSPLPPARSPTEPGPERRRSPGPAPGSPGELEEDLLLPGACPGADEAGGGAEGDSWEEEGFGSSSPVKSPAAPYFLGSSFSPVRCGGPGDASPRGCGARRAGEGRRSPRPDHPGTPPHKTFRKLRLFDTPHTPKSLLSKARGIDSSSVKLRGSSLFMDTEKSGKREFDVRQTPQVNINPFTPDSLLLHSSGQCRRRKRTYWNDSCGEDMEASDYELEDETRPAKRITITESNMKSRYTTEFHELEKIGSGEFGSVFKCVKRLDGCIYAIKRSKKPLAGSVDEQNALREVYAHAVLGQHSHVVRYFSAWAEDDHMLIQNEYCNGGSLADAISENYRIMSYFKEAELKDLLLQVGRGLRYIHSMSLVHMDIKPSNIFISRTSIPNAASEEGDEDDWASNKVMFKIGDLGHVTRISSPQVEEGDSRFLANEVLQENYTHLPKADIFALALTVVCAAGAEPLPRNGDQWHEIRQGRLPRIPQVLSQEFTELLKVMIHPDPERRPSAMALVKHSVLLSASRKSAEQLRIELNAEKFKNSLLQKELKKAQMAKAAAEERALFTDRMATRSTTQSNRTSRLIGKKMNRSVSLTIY

[17] = biological target: G2/mitotic-specific cyclin-B1 (Homo sapiens, UniProt P14635); experiment: G2/M cell cycle arrest in HeLa, late-stage follow-up, mechanism study for Wee1 degradation inhibitor project, FACS, panel member Cyclin B Degradation (AID 2088)
Chain of G2/mitotic-specific cyclin-B1 (P14635 whole entry): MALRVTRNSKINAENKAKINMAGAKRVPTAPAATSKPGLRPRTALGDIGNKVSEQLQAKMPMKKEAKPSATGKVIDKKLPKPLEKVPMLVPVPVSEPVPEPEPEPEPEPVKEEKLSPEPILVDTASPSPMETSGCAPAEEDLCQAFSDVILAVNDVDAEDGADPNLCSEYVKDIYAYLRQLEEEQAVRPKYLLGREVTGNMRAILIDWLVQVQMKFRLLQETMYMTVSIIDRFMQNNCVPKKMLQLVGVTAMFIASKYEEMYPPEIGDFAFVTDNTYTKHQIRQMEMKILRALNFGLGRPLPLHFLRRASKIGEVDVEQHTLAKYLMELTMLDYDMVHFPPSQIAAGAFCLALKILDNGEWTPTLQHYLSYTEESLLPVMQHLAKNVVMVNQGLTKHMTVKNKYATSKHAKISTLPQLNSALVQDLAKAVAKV

[18] = biological target: Intestinal-type alkaline phosphatase (Homo sapiens, UniProt P09923); experiment: activation of human intestinal alkaline phosphatase – biochemical, dose response (AID 488873); type: functional
[19] = biological target: T5, Alkaline phosphatase, tissue-nonspecific isozyme (Homo sapiens, UniProt P05186); experiment: TNAP enzyme inhibition by screening hits, dose response, selectivity assay for mouse IAP inhibitor project, biochemical, human TNAP, uHTS hits (AID 488906); type: functional
T5 sequence (P05186 whole entry): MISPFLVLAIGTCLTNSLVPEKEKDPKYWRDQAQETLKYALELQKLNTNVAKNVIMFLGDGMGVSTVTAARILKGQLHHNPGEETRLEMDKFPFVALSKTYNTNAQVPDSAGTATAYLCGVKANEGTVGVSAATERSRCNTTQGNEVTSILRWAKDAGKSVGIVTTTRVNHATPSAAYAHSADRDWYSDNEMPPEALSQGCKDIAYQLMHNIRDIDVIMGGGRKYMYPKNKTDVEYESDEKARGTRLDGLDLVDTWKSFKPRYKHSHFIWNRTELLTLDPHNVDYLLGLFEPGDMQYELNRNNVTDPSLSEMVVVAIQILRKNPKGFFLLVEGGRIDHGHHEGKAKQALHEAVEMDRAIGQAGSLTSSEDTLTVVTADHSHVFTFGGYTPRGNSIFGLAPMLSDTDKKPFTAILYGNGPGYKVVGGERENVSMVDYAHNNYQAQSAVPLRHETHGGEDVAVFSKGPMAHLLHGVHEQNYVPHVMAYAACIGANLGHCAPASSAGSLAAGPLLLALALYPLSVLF

[20] = biological target: Intestinal-type alkaline phosphatase (Mus musculus, UniProt P24822); experiment: PubChem AID 488785; type: functional
Chain of Intestinal-type alkaline phosphatase (Mus musculus, UniProt P24822) (P24822 whole entry): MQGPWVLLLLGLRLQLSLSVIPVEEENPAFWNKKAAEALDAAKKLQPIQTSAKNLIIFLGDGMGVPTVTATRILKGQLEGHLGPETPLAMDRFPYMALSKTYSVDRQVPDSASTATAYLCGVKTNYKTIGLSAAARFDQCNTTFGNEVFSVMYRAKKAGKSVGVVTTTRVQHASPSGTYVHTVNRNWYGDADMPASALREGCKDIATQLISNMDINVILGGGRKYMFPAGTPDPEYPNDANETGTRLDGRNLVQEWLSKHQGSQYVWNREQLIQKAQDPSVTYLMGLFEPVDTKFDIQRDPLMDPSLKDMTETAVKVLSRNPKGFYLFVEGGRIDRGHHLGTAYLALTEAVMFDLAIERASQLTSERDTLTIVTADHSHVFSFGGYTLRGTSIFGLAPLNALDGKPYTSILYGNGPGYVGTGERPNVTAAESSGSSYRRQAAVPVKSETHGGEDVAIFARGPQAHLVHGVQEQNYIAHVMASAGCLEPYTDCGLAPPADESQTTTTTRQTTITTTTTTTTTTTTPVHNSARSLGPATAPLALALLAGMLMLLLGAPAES

[21] = tested on: Vero; experiment: cells; type: functional; conditions: Chlorocebus sabaeus

Chain of G-protein coupled receptor 55 (Q9Y2T6 whole entry): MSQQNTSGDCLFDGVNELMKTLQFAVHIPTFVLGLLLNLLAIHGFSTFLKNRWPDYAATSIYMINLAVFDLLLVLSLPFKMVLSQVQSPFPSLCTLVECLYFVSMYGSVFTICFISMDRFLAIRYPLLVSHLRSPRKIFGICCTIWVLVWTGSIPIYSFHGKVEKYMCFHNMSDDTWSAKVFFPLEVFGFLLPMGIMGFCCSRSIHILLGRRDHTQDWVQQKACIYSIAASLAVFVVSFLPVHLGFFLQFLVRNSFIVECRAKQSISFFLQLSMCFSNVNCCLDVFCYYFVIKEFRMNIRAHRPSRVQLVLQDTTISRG

For `CN(C1CCCCC1)S(=O)(=O)c1ccc(NC(=O)C2CCCCC2C(=O)O)cc1` (stereo unspecified), the IC50 [1] was 4.72 µM (active).

In the case of `CCN1CCN(S(=O)(=O)c2ccc(Cl)c(C(=O)Nc3ccc(C(=O)N(CC)CC)cc3)c2)CC1`, the IC50 [2] is reported as 15.1 µM (active), the IC50 [3] is reported as > 100 µM (inactive) and the EC50 [4] is reported as > 112 µM (not active). The EC50 [5] was > 112 µM (not active), the IC50 [6] was 1.33 µM (active) and the IC50 [7] was > 100 µM (inactive).

In the case of `COc1ccc(C(=O)C2=C(O)C(=O)N(Cc3cccnc3)C2c2ccco2)cc1OC` (stereo unspecified), the EC50 [8] is reported as 64 µM (inactive) and the AC50 [9] is reported as 0.0891 µM (inconclusive).

For `COc1cc(/C=C2\SC(=S)N(Nc3ccccc3)C2=O)ccc1O`, the EC50 [10] was 9.67 µM (active), the CC50 [11] was 100 µM (active) and the IC50 [12] was > 32 µM. For the same compound, the AC50 [13] was 41 µM (active), the IC50 [14] was 55.7 µM (active) and the IC50 [15] was 8.41 µM (active).

In the case of `c1cc2[nH]c3c(c2c2nonc12)CCCC3`, the EC50 [16] is reported as > 49.7 µM (inactive) and the EC50 [17] is reported as > 49.7 µM (inactive).

For `Cc1c(CN2CCC(C(=O)Nc3cccc(-c4cccc(Cl)c4)c3)CC2)cnn1C`, the EC50 [18] was 37.2 µM (active), the IC50 [19] was > 100 µM (inactive) and the IC50 [20] was 4.27 µM (active). The CC50 [21] was 16.1 µM (active).
